Patent publication US20160115540A1, “PRODRUGS AND DRUGS” (Biogen MA Inc., priority 2013, published 2016)
Structures can show the parent of a compound that is named as a salt.

Test system: blood and tissues
Assay: Transcriptional profiling, acute (single) dosing, EAE mice: blood and tissues
Format: in vivo
Details: 100MMF-vs-Veh
Description: EAE induction is generally performed by immunization with brain extracts, CNS proteins (such as myelin basic protein), or peptides from such protein emulsified in an adjuvant such as complete Freund's adjuvant, e.g., as described in Linker et al., Brain. 2011 March 134(Pt3): 678-92. […] FIG. 17 depicts exemplary immunophenotyping panels used to analyze various immune cell populations (e.g., T cells, T regulatory cells, NK cells, B cells, myeloid cells). […] The number of independent mice whose tissues were harvested for transcript profiling studies and whose data passed QC is shown in TABLE 15. Animals were exposed to CO2 and whole blood collected via cardiac puncture. Two 100 μl aliquots of whole blood were collected in 1.5 mL microcentrifuge tubes and snap frozen in liquid nitrogen. Peripheral (liver, spleen, kidney and jejunum) and CNS brain (cerebellum, hippocampus, striatum and cortex) tissues were harvested and snap frozen in liquid nitrogen, with special care taken to collect tissues of similar size and from the same location. All samples were stored at -80° C. until RNA extraction was conducted. For RNA preparation, frozen tissues were placed in 2 mL RNAse-free 96-well blocks with 1.5 mL QIAzol Lysis Reagent (QIAgen) and a 3.2 mm stainless steel bead (BioSpec Products, Bartlesville, Okla.). Tissues were disrupted for four cycles of 45 seconds in a Mini-Beadbeater (Biospec Products). RNA was extracted in chloroform and the aqueous phase was mixed with an equal volume of 70% ethanol. Extracted RNA was applied to RNeasy 96 plates and purified by the spin method according to the manufacturer's protocol (RNeasy 96 Universal Tissue Protocol, QIAgen, Hilden Germany). 50 ul of snap frozen mouse blood was re-suspended in lysis buffer with proteinase K and arrayed into deep-well plates for automated RNA extraction. RNA extractions were completed on […] (Beckman Coulter, Indianapolis, Ind.) using Agencourt RNAdvance Blood kit (Part number A35604) according to the manufacturer's specifications. RNA integrity was assessed using the HT RNA reagent kit (Part number 760410, Caliper Life Sciences, Hopkinton, Mass.) using a LabChip GX (PerkinElmer, Waltham, Mass.). RNA samples with a RQS score of >8.0 were considered high quality for downstream microarray processing. […] Washing and staining of the hybridized arrays were completed as described in the GeneChip Expression analysis technical manual for HT plate arrays using the Genechip® Array Station (Affymetrix, Santa Clara, Calif.) with modifications as described in […] et al. The processed GeneChip® plate arrays were scanned using GeneTitan scanner (Affymetrix, Santa Clara, Calif.). Affymetrix scans were subject to quality control (QC) measures. These tests included a visual inspection of the distribution of raw signal intensities and an assessment of RNA degradation, relative log expression (RLE), and normalized unscaled standard error (NUSE). All sample scans that passed these QC metrics were included in the analysis. […] Nucleic Acids Res 2003; 31:e15; Li C, et al. Genome Biol 2001; 2:[…]0032). […] Stat Appl Genet Mol Biol 2004; 3:Article3). […] Springer Science+Business Media 2005). […] Generally, no distinct sample groupings were apparent from this analysis; however, in the following cohorts, differences in EAE severity across the mice were manifest in global gene expression patterns: An example of this animal grouping is shown in FIG. 33 for the spinal cord from the chronically-dosed 7 h EAE mice. […] Three distinct groups of mice result from unsupervised clustering, and these animal groups correlate with the cumulative EAE score. […] Subsequent analyses for the cohorts listed above only included those animals with the most severe EAE scores; however, for the cohorts 'Spinal Cord, Acute Dosing, 7 h' and 'Spleen, Acute Dosing, 12 h,' there were an insufficient number of mice in the different treatment groups to perform such a sub-analysis. […]

SMILES: COC(=O)/C=C/C(=O)O [MMF, monomethyl fumarate]
- FC Gm6159 /// Hnrnpr 1437526_PM_x_at (spleen, 7 h): 1.50
- FC Gsto1 1456036_PM_x_at (spleen, 7 h): 1.51
- FC Hadhb 1437172_PM_x_at (spleen, 7 h): 1.51
- FC Herpud2 1439424_PM_x_at (spleen, 7 h): 1.62
- FC Higd1c /// Mettl7a1 /// Mettl7a2 1434150_PM_a_at (spleen, 7 h): 2.40
- FC Higd1c /// Mettl7a2 1456510_PM_x_at (spleen, 7 h): 1.61
- FC Homer1 1437363_PM_at (spleen, 7 h): 1.60
- FC Itsn1 1435884_PM_at (spleen, 7 h): 1.69
- FC Kctd3 1455816_PM_a_at (spleen, 7 h): 1.51
- FC Kif22 1437716_PM_x_at (spleen, 7 h): 1.68
- FC Klhl7 1428091_PM_at (spleen, 7 h): 1.77
- FC LOC100047324 /// Sesn1 1438931_PM_s_at (spleen, 7 h): 1.52
- FC Lmcd1 1424596_PM_s_at (spleen, 7 h): 1.64
- FC Lnp 1453035_PM_at (spleen, 7 h): 1.69
- FC Lrrtm2 1455489_PM_at (spleen, 7 h): 1.50
- FC Mcm4 1436708_PM_x_at (spleen, 7 h): 1.72
- FC Metap2 1434120_PM_a_at (spleen, 7 h): 1.52
- FC Mettl7a1 1454858_PM_x_at (spleen, 7 h): 1.63
- FC Mkrn1 1434853_PM_x_at (spleen, 7 h): 1.62
- FC Myef2 1425350_PM_a_at (spleen, 7 h): 1.59
- FC Myof 1427318_PM_s_at (spleen, 7 h): 1.52
- FC Ncapd3 1454952_PM_s_at (spleen, 7 h): 1.66
- FC Nfkb1 1427705_PM_a_at (spleen, 7 h): 1.52
- FC Nqo1 (1423627_PM_at) (spleen, 7 h): 3.23
- FC Nudt12 1453139_PM_at (spleen, 7 h): 2.17
- FC Otud5 1438985_PM_x_at (spleen, 7 h): 1.51
- FC Pik3r1 1425514_PM_at (spleen, 7 h): 1.62
- FC Pir (1429001_PM_at) (spleen, 7 h): 2.78
- FC Polh 1447837_PM_x_at (spleen, 7 h): 1.64
- FC Prkaca 1447720_PM_x_at (spleen, 7 h): 1.53
- FC Prkar1b 1440132_PM_s_at (spleen, 7 h): 1.50
- FC Prpf40a 1429436_PM_at (spleen, 7 h): 1.65
- FC Psmc6 1417770_PM_s_at (spleen, 7 h): 1.77
- FC Psmd9 1447670_PM_at (spleen, 7 h): 1.73
- FC Rab6 1447776_PM_x_at (spleen, 7 h): 1.51
- FC Rad21 1455938_PM_x_at (spleen, 7 h): 1.58
- FC Ranbp2 1422621_PM_at (spleen, 7 h): 1.50
- FC Ranbp2 1445883_PM_at (spleen, 7 h): 1.61
- FC Rbm39 1442745_PM_x_at (spleen, 7 h): 1.54
- FC Rdx 1416179_PM_a_at (spleen, 7 h): 1.53
- FC Rif1 1429490_PM_at (spleen, 7 h): 1.66
- FC Rlim 1439403_PM_x_at (spleen, 7 h): 1.51
- FC Sec24a 1433934_PM_at (spleen, 7 h): 1.50
- FC Smc4 1427275_PM_at (spleen, 7 h): 1.56
- FC Smc6 1460069_PM_at (spleen, 7 h): 1.52
- FC Smpd4 1429530_PM_a_at (spleen, 7 h): 2.04
- FC Sorbs1 1436737_PM_a_at (spleen, 7 h): 1.71
- FC Sp4 1437508_PM_at (spleen, 7 h): 1.67
- FC Srxn1 (1419942_PM_at) (spleen, 7 h): 1.82
- FC Srxn1 (1426875_PM_s_at) (spleen, 7 h): 1.94
- FC Srxn1 (1451680_PM_at) (spleen, 7 h): 1.68
- FC Suz12 1449661_PM_at (spleen, 7 h): 1.56
- FC Svip 1429146_PM_at (spleen, 7 h): 1.59
- FC Tceb1 1452593_PM_a_at (spleen, 7 h): 1.50
- FC Terf1 1443527_PM_at (spleen, 7 h): 1.71
- FC Thoc1 1420042_PM_at (spleen, 7 h): 1.89
- FC Tmem41b 1428586_PM_at (spleen, 7 h): 1.88
- FC Tmem64 1433735_PM_a_at (spleen, 7 h): 1.70
- FC Tnks2 1447522_PM_s_at (spleen, 7 h): 1.63
- FC Tspyl1 1415908_PM_at (spleen, 7 h): 1.66
- FC Ttc14 1437878_PM_s_at (spleen, 7 h): 1.53
- FC Txnl1 1435235_PM_at (spleen, 7 h): 1.59
- FC Usp14 1437714_PM_x_at (spleen, 7 h): 1.57
- FC Zfp800 1456790_PM_at (spleen, 7 h): 1.83
- FC Zfx 1419565_PM_a_at (spleen, 7 h): 1.50
- FC 4930427A07Rik 1455818_PM_at (whole blood, 7 h): −1.59
- FC Klra3 /// Klra9 1425436_PM_x_at (whole blood, 7 h): −2.05
- FC Klra8 1425417_PM_x_at (whole blood, 7 h): −2.10
- FC Rnf128 (1449036_PM_at) (whole blood, 7 h): 1.54
- FC Serpinb6b 1422804_PM_at (whole blood, 7 h): −1.64
- FC Xpc 1422532_PM_at (whole blood, 7 h): 1.59
- FC 1445666_PM_at (whole blood, 12 h): 2.14
- FC Prdm2 1453068_PM_at (whole blood, 12 h): 1.70
